Laboratory results as given in patent publication US9631041B2, “PH-sensitive compositions for delivery of beta lapachone and methods of use” (The Board of Regents of the University of Texas System, priority 2010, dated 2017).
Values after ≈ are worked out from the molar mass of the structure shown. Like-named read-outs stand apart in the source and are kept apart here.

How the values were obtained:
[1] = Prodrug hydrolysis / conversion into β-lap by HPLC at different pH; assay type: physicochemical; conditions: for pH sensitivity of hydrolysis: hydrolysis study at neutral pH and acidic pH; for half-life at 5 μmol/mL: acetonitrile/buffered solution (30:70, v/v)
Description: The HPLC system consisted of a quaternary pump, a vacuum degasser, an autosampler, a C18 column (4.6 mm×250 mm, Agilent, CA) and UV detector at 254 nm (Perkin Elmer, MA, USA). The mobile phase was acetonitrile/water (60:40) and a flow rate of 1.0 mL/min was used.

[2] = tested on: A549 cells; assay: Cytotoxicity assay, long-term relative survival by DNA content; assay type: cell-based, human
Description: Long-term, relative survival was assessed based on DNA content as described (Pink, J. J., Planchon, S. M., Tagliarino, C., Varnes, M. E., Siegel, D., and Boothman, D. A. (2000) NAD(P)H:Quinone oxidoreductase activity is the principal determinant of beta-lapachone cytotoxicity. J. Biol. Chem. 275, 5416-24). Briefly, A549 cells were seeded at 5×10^3/well in 48-well dishes a day before experiments. Cells were then mock-treated or exposed to various doses of β-lap or β-lap prodrug (6) conjugated micelles for preferred time in the presence or absence of dicoumoral (40 μM) as indicated. Subsequently, cells were replenished with drug-free medium and allowed to grow for 5-7 days until control cells reached ˜100% confluence. DNA content was determined by Hoechst 33258 staining and fluorescence detection using a plate reader (Perkin-Elmer, Boston, Mass.). Results were graphed as means±SE from sixtuplicate. Independent experiments were repeated at least three times. DIC is a specific NQO1 inhibitor and used to block β-Lap induced cytotoxicity.

[3] = inclusion complex with hydroxylpropyl β-cyclodextrin; cited from earlier work
[4] = target: NQO1 (Homo sapiens, UniProt P15559); conditions: upon NQO1 bioactivation, futile cycle; cited from earlier work
NQO1, sequence (P15559 whole entry): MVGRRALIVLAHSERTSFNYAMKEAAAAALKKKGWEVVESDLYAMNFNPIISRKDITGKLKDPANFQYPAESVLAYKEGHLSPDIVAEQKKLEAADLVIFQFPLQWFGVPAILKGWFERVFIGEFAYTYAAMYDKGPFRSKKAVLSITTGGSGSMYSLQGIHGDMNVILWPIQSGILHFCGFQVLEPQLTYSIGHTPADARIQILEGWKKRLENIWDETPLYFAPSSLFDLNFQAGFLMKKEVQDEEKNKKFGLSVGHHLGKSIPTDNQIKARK

[5] = free drug; cited from earlier work

CC1(C)CCc2c(c3ccccc3c3nc(CCCCO)oc23)O1 [(4), 4-(6,6-dimethyl-5,6-dihydro-4H-benzo[7,8]chromeno[6,5-d]oxazol-2-yl)butan-1-ol]
pH sensitivity of hydrolysis [1]: resisted acid catalyzed hydrolysis

Cc1cc2nc3c(oc-2cc1=O)c1c(c2ccccc23)OC(C)(C)CC1 [(5), 3,3,11-trimethyl-2,3-dihydrobenzo[a]pyrano[2,3-c]phenoxazin-12(1H)-one]
pH sensitivity of hydrolysis [1]: resisted acid catalyzed hydrolysis

Nc1ccc(N2C(=O)C=CC2=O)cc1 [linker, N-(4-Aminophenyl)maleimide]
toxicity ([2]; A549, treatment up to 24 h): No toxicity

CC(=O)N/N=C1\C(=O)C2=C(OC(C)(C)CC2)c2ccccc21 [prodrug (1), (Z)—N′-(2,2-dimethyl-5-oxo-3,4-dihydro-2H-benzo[h]chromen-6(5H)-ylidene)acetohydrazide]
pH sensitivity of hydrolysis [1]: not pH-sensitive

CC1(C)CCC2=C(O1)c1ccccc1[C@]1(OC[C@@](C)(CO)CO1)C2=O [prodrug (2), (2′r,5′r)-5′-(hydroxymethyl)-2,2,5′-trimethyl-3,4-dihydrospiro[benzo[h]chromene-6,2′-[1,3]dioxan]-5(2H)-one]
pH sensitivity of hydrolysis [1]: not pH-sensitive

CC1(C)CCC2=C(O1)c1ccccc1[C@]1(OC[C@](C)(CO)CO1)C2=O [prodrug (3), (2′s,5′s)-5′-(hydroxymethyl)-2,2,5′-trimethyl-3,4-dihydrospiro[benzo[h]chromene-6,2′-[1,3]dioxan]-5(2H)-one]
pH sensitivity of hydrolysis [1]: not pH-sensitive

CC1(C)CCC2=C(O1)c1ccccc1/C(=N\c1ccc(N3C(=O)C=CC3=O)cc1)C2=O [prodrug (6), (E)-1-(4-(2,2-dimethyl-5-oxo-3,4-dihydro-2H-benzo[h]chromen-6(5H)-ylideneamino)phenyl)-1H-pyrrole-2,5-dione]
half-life at 5 μmol/mL ([1]; pH 5, pH 5.0, room temperature, read-out: half-life of conversion into β-lap, t1/2 (pH 5.0) (converted)): 1.1 h
half-life at 5 μmol/mL ([1]; pH 7.4, pH 7.4, read-out: half-life for hydrolysis, t1/2 (pH 7.4)): > 90 h
pH sensitivity of hydrolysis [1]: inspiring pH sensitivity both at neutral and at acidic conditions
prodrug converted into β-Lap ([1]; pH 5.0, after 1.5 hr): more than 50%
prodrug hydrolyzed ([1]; pH 5.0, after 10 hrs): all prodrug (6) was hydrolyzed
β-Lap released from prodrug ([1]; pH 5.0 buffer, 5 mins): only a trace
prodrug converted into β-Lap ([1]; pH 6.5, after 24 hrs): about 30%
prodrug converted into β-Lap ([1]; pH 7.4, after 24 hrs): ~3.3%

CC1(C)CCC2=C(O1)c1ccccc1C(=O)C2=O [β-lap, β-Lapachone]
binding constant [3]: 1100 M⁻¹
cytotoxicity in the presence of dicoumarol (NQO1 inhibitor) ([2]; A549, dicoumarol 40 μM): blocked
concentration sufficient to reach maximal cytotoxicity ([2]; A549 cells, within 2 hours): 5 µM
moles of H2O2 and other ROS produced per mole of β-lap [4]: 120 mol
aqueous solubility [5]: 38 µg/mL (≈ 157 µM)
